Measurements: US9963480B2, “Nucleoside phosphoramidate compound and use thereof” (priority 2013, dated 2018)

Assay: Pharmacokinetic studies in SD rats: metabolite GS-461203 in liver homogenate
Type: in vivo
Settings: liver tissue, 50 mg/kg intragastric
Method: In this experiment, the compound of Example 1 was used, and the positive control drug was the same as above. Each of the compounds was added to 0.5% sodium carboxymethyl cellulose (CMC), and the mixture was vortexed to prepare a 10 mg/mL suspension for intragastric administration.
The standard substance GS-461203 was the metabolite of the tested compounds, and the chemical name was (2′R)-2′-deoxy-2′-fluoro-2′-methyluridinetriphosphate, which was purchased from TriLink BioTechnologies Corporation, USA.
Male SD rats, 6-8 weeks old, weighing 237.0-268.4 g, provided by Shanghai Super-B&K laboratory animal Co. Limited.
• 1) administration: dividing SD rats into 4 groups, with 18 rats in each group, intragastrically administering with the compound in an amount of 50 mg/kg. […]

## CC(C)OC(=O)[C@H](C)NP(=O)(OC[C@H]1O[C@@H](n2ccc(=O)[nH]c2=O)[C@](C)(F)[C@@H]1O)Oc1ccc(-c2ccccc2)cc1 (stereo partly drawn) [Example 1, (2S)-2-((([1,1′-biphenyl]-4-yloxy)(((2R,3R,4R,5R)-5-(2,4-dioxo-3,4-dihydropyrimidin-1(2H)-yl)-4-fluoro-3-hydroxy-4-methyltetrahydrofuran-2-yl)methoxy)phosphoryl)amino)propanoic Acid Isopropyl Ester]
  in vivo exposure level of the metabolite compared with the positive control: greater
